Measurements as given in patent US8344028B2, “Gamma-amino-butyric acid derivatives as GABAB receptor ligands” (XenoPort, Inc., priority 2009, dated 2013).
Where a name gives a salt, the structure may show the parent alone.

Tests used:
GABAB receptor [1] = molecular target: T1, GABAB receptor (Rattus norvegicus, UniProt Q9Z0U4); experiment: [3H]CGP54626 rat brain GABAB receptor binding assay; settings: [3H]CGP54626 rat brain binding assay
T1 construct: from tissue; host or cells: rat cerebral cortex membranes
Experimental: An assay using rat cerebral cortex membranes was used to determine the affinity of GABAB receptor ligands for the GABAB receptor.
An assay buffer of 50 mM Tris pH 7.4 was prepared with 100 μM of isoguvacine, to block GABAA interactions. The assay buffer with isoguvacine was used for dilution of membranes, compounds, and radiolabel.
Rat cerebral cortex membranes were diluted in assay buffer at 1 mg/mL and aliquoted into a 96-well plate at 900 μL/well. Buffer or test compound were added at 20-times final concentration in the buffer at 50 μL/well. Membranes and test compounds or buffer were incubated for 10 min. at room temperature. Radiolableled [S—(R*,R*)]-[3-[[1-(3,4-dichlorophenyl)ethyl]amino]-2-hydroxypropyl](cyclohexylmethyl) phosphinic acid (CGP54626) was then added at 50 μL/well in the buffer at 1-10 nM concentration in 50 μl. The mixture was incubated for 15 min. at room temperature. The assay mixture was filtered using Brandell filtration apparatus and GFB filters, washed twice with 3 mL of 4° C., 50 mM Tris pH 7.4, buffer without isoguvacine. The filters were then dried at room temperature and the dried filters punched out and placed in individual vials. Three (3) mL of scintillation fluid was added to each vial and the radiolabel counted on the scintillation counter. The inverse amount of radiolabel was indicative of binding of a test compound to the GABAB receptor.

[2] = molecular target: T2, recombinant human GABABR1a2 (Homo sapiens, UniProt Q9UBS5); experiment: cAMP assay for determining GABAB receptor agonist activity; format: cell-based
T2 construct: expressed in transfected cells; host or cells: HEK cells
Experimental: The following procedure was used to determine the level of intracellular cAMP. Recombinant HEK cells expressing the GABAB R1a2 receptor were used in the experiments. cAMP levels were measured using a cAMP XS^+ HitHunter™ Chemiluminescence Assay Kit (90-0075-02, GE Healthcare Biosciences Corp.). Cells were seeded overnight at 5,000 cells per well, in black, clear bottom 96-well plates. The following morning, cells were washed twice with 100 μL PBS per well. Forskolin was weighed out and dissolved in DMSO to a final concentration 100 mM. One-hundred (100) μM forskolin solutions were prepared in PBS with and without test compound at 1-times final concentration. Thirty (30) μL of the test solutions were added to the wells and incubated for 1 h at room temperature. The cAMP concentration was determined according to the protocol described in the cAMP assay kit, maintaining the plate at room temperature and in the dark. Two hours after the final kit reagent was added, the plate bottom was covered with black tape, and the plate read using a 1450 MicroBeta Trilux microplate scintillation and luminescence counter (PerkinElmer, Waltham, Mass.). Each well was read for 6 seconds. The untransformed data was then analyzed.

[3] = molecular target: T2, recombinant human GABABR1a2; experiment: Ca2+ assay for determining GABAB receptor agonist activity; format: cell-based; settings: cells expressing recombinant human GABABR1a2
Experimental: The following procedure was used to determine the GABAB receptor agonist activity of a compound as reflected by activation of Ca^2+ signaling. HEK TREx cells expressing GABABR1a2 under tetracycline induction control, and Gqi chimeric protein (expressed constitutively), allowing GABABR coupling through the Ca^2+ signaling pathway were used in the experiments.
Cells were seeded in media containing tetracycline overnight at 100,000 cells/well, in black, clear-bottom, 96-well plates. The following morning, cells were washed twice with 100 μL HBSS buffer per well. Fluorescent Ca^2+ indicator dye was prepared using the materials and procedure described in the F362056 Fluo-4 NW Calcium Assay Kit (Invitrogen, Carlsbad, Calif.). Ten (10) mL of kit buffer and 100 μl of kit Probenecid were added to individual kit dye vials, and rolled back and forth several times to dissolve the dye. Cells were then loaded into the dye solution at 50 μL per well. The cells and dye were incubated for 30 min at 37° C., and then incubated for an additional 30 min at room temperature in the dark. Test compounds are dissolved in HBSS buffer at twice final concentration. Duplicate wells were used for each unique condition. Solution containing the test compound was added to the wells using a FLEXStation II (Molecular Devices, Sunnyvale, Calif.). Using the instrument in kinetic mode in which each well was read every 2 sec over a total collection time of 50 sec fluorescence was measured using an excitation wavelength 494 nm and a detection wavelength of 516 nm. A normalized fluorescence value for each well was calculated using the following procedure. The difference in fluorescence at 35 sec (usually representing maximal response) and at 15 sec (a time point prior to addition of test compounds) was calculated, divided by the fluorescence at 15 sec, and the result multiplied by 100. The final value represented the percent increase in fluorescence relative to the fluorescence at 15 sec. Data was analyzed using standard procedures.

GABAB receptor [4] = molecular target: GABAB receptor (Homo sapiens, UniProt Q9UBS5); experiment: GABAB receptor agonist or partial agonist activity by binding, electrophysiology, cAMP and/or Ca2+ assay methods (Examples 83-86); format: cell-based
Summary of the method: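 Binding: rat cortex membranes in 50 mM Tris pH 7.4 with 100 μM isoguvacine were preincubated 10 min at RT with compound, then radiolabeled CGP54626 (1-10 nM) was added; filtered and scintillation-counted. cAMP: GABAB R1a2 HEK cells, 1 h RT with 100 μM forskolin, chemiluminescence.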

[5] = cells expressing recombinant human GABABR1a2, read-out: cAMP EC50

Chain of GABAB receptor (Homo sapiens, UniProt Q9UBS5) (Q9UBS5 20-961): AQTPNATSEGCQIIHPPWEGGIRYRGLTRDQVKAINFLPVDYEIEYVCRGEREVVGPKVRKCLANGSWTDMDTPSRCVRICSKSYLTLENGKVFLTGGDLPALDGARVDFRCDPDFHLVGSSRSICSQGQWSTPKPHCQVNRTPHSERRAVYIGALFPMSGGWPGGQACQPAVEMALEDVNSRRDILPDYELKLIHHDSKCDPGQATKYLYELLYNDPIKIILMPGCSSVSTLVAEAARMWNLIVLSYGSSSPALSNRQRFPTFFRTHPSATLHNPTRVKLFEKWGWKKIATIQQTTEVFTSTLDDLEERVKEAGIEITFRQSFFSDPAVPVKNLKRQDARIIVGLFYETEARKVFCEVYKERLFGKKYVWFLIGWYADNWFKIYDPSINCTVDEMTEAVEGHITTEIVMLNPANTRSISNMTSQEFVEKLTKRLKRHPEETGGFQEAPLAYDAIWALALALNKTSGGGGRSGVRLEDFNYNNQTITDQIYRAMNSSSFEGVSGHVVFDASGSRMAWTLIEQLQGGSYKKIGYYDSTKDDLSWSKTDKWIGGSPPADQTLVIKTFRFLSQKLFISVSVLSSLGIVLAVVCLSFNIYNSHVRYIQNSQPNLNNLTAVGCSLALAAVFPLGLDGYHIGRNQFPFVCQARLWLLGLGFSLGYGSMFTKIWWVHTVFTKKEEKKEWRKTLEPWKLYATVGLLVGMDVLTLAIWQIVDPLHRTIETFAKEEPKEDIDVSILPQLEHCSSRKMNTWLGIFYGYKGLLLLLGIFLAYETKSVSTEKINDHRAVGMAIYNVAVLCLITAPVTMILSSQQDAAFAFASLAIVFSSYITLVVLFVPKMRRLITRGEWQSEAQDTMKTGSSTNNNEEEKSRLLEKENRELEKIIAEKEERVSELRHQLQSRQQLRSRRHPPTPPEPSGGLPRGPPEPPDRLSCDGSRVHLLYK
Chain of GABAB receptor (Homo sapiens, UniProt Q9UBS5) (O75899 42-941 partner): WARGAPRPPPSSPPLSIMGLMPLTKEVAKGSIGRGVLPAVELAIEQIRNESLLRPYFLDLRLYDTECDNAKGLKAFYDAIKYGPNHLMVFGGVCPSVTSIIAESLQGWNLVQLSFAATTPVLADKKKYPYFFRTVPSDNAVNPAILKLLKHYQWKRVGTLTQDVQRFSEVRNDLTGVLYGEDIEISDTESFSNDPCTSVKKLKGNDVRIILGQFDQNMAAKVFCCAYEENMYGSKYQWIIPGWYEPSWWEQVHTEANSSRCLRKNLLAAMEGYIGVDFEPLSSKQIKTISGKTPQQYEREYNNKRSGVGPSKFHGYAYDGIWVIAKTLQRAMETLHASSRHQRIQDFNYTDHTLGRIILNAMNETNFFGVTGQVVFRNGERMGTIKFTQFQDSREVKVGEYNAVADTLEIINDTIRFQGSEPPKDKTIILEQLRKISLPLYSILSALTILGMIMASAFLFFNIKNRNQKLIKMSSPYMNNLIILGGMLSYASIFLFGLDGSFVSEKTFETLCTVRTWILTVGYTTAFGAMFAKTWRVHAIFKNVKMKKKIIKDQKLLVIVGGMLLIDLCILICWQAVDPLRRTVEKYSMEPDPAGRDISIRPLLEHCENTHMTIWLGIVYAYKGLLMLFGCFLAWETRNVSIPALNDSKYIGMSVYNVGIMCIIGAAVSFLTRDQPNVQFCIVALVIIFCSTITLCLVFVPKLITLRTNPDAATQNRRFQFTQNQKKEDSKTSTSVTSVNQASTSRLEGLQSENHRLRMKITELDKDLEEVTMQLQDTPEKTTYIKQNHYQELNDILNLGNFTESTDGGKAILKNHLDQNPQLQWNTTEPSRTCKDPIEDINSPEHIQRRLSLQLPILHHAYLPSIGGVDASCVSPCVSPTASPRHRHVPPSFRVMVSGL
T2 sequence (Q9UBS5 15-961 limits assumed): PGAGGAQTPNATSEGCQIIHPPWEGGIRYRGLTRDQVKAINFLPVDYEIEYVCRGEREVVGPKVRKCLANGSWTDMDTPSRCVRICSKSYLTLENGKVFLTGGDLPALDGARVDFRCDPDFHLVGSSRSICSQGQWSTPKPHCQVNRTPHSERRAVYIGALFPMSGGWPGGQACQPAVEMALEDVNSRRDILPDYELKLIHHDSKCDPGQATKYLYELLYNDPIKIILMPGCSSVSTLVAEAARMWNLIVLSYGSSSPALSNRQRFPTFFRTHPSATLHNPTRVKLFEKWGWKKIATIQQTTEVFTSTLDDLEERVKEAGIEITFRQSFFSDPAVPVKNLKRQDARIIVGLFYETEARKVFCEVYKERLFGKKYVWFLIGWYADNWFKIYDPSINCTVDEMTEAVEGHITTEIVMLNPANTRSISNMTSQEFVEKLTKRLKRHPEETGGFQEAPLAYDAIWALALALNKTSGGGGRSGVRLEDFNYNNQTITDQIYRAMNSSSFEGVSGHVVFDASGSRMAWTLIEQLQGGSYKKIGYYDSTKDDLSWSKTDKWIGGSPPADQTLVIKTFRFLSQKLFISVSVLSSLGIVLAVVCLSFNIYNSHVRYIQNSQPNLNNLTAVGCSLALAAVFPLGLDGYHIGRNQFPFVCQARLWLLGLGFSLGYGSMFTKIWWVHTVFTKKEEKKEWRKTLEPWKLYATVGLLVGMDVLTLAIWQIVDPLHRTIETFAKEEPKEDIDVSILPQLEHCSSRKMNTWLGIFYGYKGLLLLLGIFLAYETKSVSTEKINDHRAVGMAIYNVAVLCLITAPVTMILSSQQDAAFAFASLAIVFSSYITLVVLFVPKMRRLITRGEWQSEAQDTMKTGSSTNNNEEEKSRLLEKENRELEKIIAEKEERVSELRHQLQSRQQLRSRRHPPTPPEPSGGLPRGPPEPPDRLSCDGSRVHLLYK
T2 sequence (O75899 42-941 partner): as the sequence (O75899 42-941 partner) above
T1 sequence (Q9Z0U4 20-960): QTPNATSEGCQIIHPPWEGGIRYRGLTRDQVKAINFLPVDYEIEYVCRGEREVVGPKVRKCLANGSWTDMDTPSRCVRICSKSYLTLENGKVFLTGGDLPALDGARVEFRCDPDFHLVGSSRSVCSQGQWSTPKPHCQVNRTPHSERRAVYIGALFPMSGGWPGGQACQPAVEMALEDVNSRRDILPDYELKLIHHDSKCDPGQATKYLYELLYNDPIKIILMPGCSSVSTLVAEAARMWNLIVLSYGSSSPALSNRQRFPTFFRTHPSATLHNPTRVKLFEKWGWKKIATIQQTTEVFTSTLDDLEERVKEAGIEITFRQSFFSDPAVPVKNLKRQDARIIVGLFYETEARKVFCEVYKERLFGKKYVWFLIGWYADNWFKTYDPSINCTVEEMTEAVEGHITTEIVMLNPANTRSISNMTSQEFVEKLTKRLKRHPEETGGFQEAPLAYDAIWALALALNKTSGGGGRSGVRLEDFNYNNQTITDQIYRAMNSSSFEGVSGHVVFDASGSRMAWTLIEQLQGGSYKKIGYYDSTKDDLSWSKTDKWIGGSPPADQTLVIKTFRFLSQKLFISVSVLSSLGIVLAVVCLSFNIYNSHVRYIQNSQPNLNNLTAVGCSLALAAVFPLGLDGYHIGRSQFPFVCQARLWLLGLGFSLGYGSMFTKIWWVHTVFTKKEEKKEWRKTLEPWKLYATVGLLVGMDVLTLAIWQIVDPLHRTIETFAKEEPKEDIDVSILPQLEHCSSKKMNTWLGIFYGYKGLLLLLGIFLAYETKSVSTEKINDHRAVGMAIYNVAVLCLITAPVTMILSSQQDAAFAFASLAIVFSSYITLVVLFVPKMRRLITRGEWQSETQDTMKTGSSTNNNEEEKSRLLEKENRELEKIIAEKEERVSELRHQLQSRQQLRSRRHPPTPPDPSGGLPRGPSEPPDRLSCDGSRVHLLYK
T1 sequence (O88871 41-940 partner): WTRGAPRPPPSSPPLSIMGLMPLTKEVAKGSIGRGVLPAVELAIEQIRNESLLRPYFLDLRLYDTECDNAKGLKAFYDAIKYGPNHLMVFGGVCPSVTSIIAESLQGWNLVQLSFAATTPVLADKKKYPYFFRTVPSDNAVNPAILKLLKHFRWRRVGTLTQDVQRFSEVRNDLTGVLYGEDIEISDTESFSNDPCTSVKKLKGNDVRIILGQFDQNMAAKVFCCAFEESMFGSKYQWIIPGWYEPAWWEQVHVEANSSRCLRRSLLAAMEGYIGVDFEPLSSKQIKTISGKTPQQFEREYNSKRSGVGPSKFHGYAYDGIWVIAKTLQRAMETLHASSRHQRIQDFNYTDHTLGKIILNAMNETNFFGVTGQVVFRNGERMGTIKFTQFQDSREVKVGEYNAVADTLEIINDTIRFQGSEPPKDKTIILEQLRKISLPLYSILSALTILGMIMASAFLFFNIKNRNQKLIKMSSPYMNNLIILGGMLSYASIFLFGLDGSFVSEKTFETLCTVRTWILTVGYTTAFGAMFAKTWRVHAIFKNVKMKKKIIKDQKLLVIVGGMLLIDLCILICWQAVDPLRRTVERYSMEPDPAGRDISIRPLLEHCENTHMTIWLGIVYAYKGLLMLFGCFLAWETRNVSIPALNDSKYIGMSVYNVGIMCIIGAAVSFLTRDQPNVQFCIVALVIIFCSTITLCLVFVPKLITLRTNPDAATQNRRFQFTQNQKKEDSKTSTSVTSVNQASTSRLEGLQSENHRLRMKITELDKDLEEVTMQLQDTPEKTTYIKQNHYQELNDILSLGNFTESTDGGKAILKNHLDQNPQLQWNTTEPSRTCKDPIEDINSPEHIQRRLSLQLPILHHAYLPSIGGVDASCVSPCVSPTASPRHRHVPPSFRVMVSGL

With `Cl.NC[C@H](CC(=O)O)c1ccc(Cl)c(-c2ccc(F)c(C(=O)O)c2)c1` [5-{5-[(1R)-2-amino-1-(carboxymethyl)ethyl]-2-chlorophenyl}-2-fluorobenzoic acid hydrochloride] the IC50 (GABAB receptor [1]) was less than 25000 nM, the EC50 [2, 5] was less than 100 nM and the EC50 [3] was less than 700 nM. The “GABAB receptor agonist or partial agonist activity” value (GABAB receptor [4]) was “agonist or partial agonist activity”.
For `Cl.NC[C@H](CC(=O)O)c1ccc(Cl)c(CCc2ccncc2)c1` [(3R)-4-amino-3-[4-chloro-3-(2-(4-pyridyl)ethyl)phenyl]butanoic acid hydrochloride], the IC50 (GABAB receptor [1]) was less than 25000 nM, the EC50 [2, 5] was less than 100 nM and the EC50 [3] was less than 700 nM. For the same compound, the “GABAB receptor agonist or partial agonist activity” value (GABAB receptor [4]) was “agonist or partial agonist activity”.
In the case of `Cl.N#Cc1cc(F)cc(-c2cc([C@H](CN)CC(=O)O)ccc2Cl)c1` [(3R)-4-amino-3-[4-chloro-3-(3-cyano-5-fluorophenyl)phenyl]butanoic acid hydrochloride], the IC50 (GABAB receptor [1]) is reported as less than 25000 nM, the EC50 [2, 5] is reported as less than 100 nM and the EC50 [3] is reported as less than 700 nM. For the same compound, the “GABAB receptor agonist or partial agonist activity” value (GABAB receptor [4]) was “agonist or partial agonist activity”.
In the case of `Cl.N#Cc1ccc(F)c(-c2cc([C@H](CN)CC(=O)O)ccc2Cl)c1` [(3R)-4-amino-3-[4-chloro-3-(3-cyano-6-fluorophenyl)phenyl]butanoic acid hydrochloride], the IC50 (GABAB receptor [1]) is reported as less than 25000 nM, the EC50 [2, 5] is reported as less than 100 nM and the EC50 [3] is reported as less than 700 nM. For the same compound, the “GABAB receptor agonist or partial agonist activity” value (GABAB receptor [4]) was “agonist or partial agonist activity”.
For `Cc1ccc(C#N)cc1-c1cc([C@H](CN)CC(=O)O)ccc1Cl.Cl` [(3R)-4-amino-3-[4-chloro-3-(3-cyano-6-methylphenyl)phenyl]butanoic acid hydrochloride], the IC50 (GABAB receptor [1]) was less than 25000 nM, the EC50 [2, 5] was less than 100 nM and the EC50 [3] was less than 700 nM. For the same compound, the “GABAB receptor agonist or partial agonist activity” value (GABAB receptor [4]) was “agonist or partial agonist activity”.
For `Cl.NC[C@H](CC(=O)O)c1ccc(Cl)c(OCc2cccnc2)c1` [(3R)-4-amino-3-[4-chloro-3-(3-pyridylmethoxy)phenyl]butanoic acid hydrochloride], the IC50 (GABAB receptor [1]) was less than 25000 nM, the EC50 [2, 5] was less than 100 nM and the EC50 [3] was less than 700 nM. For the same compound, the “GABAB receptor agonist or partial agonist activity” value (GABAB receptor [4]) was “agonist or partial agonist activity”.
`Cc1ccncc1-c1cc([C@H](CN)CC(=O)O)ccc1Cl.Cl` [(3R)-4-amino-3-[4-chloro-3-(4-methyl(3-pyridyl))phenyl]butanoic acid hydrochloride] was tested, and the IC50 (GABAB receptor [1]) was less than 25000 nM, the EC50 [2, 5] was less than 100 nM and the EC50 [3] was less than 700 nM. The “GABAB receptor agonist or partial agonist activity” value (GABAB receptor [4]) was “agonist or partial agonist activity”.
Compound `Cl.N#Cc1ccc(Cl)c(-c2cc([C@H](CN)CC(=O)O)ccc2Cl)c1` [(3R)-4-amino-3-[4-chloro-3-(6-chloro-3-cyanophenyl)phenyl]butanoic acid hydrochloride] has an IC50 (GABAB receptor [1]) of less than 25000 nM, an EC50 [2, 5] of less than 100 nM and an EC50 [3] of less than 700 nM. The “GABAB receptor agonist or partial agonist activity” value (GABAB receptor [4]) was “agonist or partial agonist activity”.
`Cl.NC[C@H](CC(=O)O)c1ccc(Cl)c(-c2cccc(C(=O)O)c2)c1` [Example 25, 3-{5-[(1R)-2-Amino-1-(carboxymethyl)ethyl]-2-chlorophenyl}benzoic acid hydrochloride] showed an IC50 (GABAB receptor [1]) of less than 25000 nM, an EC50 [2, 5] of less than 100 nM and an EC50 [3] of less than 700 nM. The “GABAB receptor agonist or partial agonist activity” value (GABAB receptor [4]) was “agonist or partial agonist activity”.
With `Cl.NC[C@H](CC(=O)O)c1ccc(Cl)c(-c2csc(C(=O)O)c2)c1` [Example 27, 4-{5-[(1R)-2-Amino-1-(carboxymethyl)ethyl]-2-chlorophenyl}thiophene-2-carboxylic acid hydrochloride] the IC50 (GABAB receptor [1]) was less than 25000 nM, the EC50 [2, 5] was less than 100 nM and the EC50 [3] was less than 700 nM. The “GABAB receptor agonist or partial agonist activity” value (GABAB receptor [4]) was “agonist or partial agonist activity”.
With `N#Cc1ccc(-c2cc([C@H](CN)CC(=O)O)ccc2Cl)s1` [Example 29, (3R)-4-Amino-3-[4-chloro-3-(5-cyano-2-thienyl))phenyl]butanoic acid hydrochloride] the IC50 (GABAB receptor [1]) was less than 25000 nM, the EC50 [2, 5] was less than 100 nM and the EC50 [3] was less than 700 nM. The “GABAB receptor agonist or partial agonist activity” value (GABAB receptor [4]) was “agonist or partial agonist activity”.
`Cl.NC[C@H](CC(=O)O)c1ccc(Cl)c(-c2cccnc2)c1` [Example 32, (3R)-4-Amino-3-(4-chloro-3-(3-pyridyl)phenyl)butanoic acid hydrochloride] gave an IC50 (GABAB receptor [1]) of less than 25000 nM, an EC50 [2, 5] of less than 100 nM and an EC50 [3] of less than 700 nM. For the same compound, the “GABAB receptor agonist or partial agonist activity” value (GABAB receptor [4]) was “agonist or partial agonist activity”.
For `Cl.N#Cc1cccc(-c2cc([C@H](CN)CC(=O)O)ccc2Cl)c1` [Example 33, (3R)-4-Amino-3-[4-chloro-3-(3-cyanophenyl)phenyl]butanoic acid hydrochloride], the IC50 (GABAB receptor [1]) was less than 25000 nM, the EC50 [2, 5] was less than 100 nM and the EC50 [3] was less than 700 nM. The “GABAB receptor agonist or partial agonist activity” value (GABAB receptor [4]) was “agonist or partial agonist activity”.
Work on `Cl.NC[C@H](CC(=O)O)c1ccc(Cl)c(-c2cccc([N+](=O)[O-])c2)c1` [Example 37, (3R)-4-Amino-3-[4-chloro-3-(3-nitrophenyl)phenyl]butanoic acid hydrochloride] yielded an IC50 (GABAB receptor [1]) of less than 25000 nM, an EC50 [2, 5] of less than 100 nM and an EC50 [3] of less than 700 nM. The “GABAB receptor agonist or partial agonist activity” value (GABAB receptor [4]) was “agonist or partial agonist activity”.
`Cl.NC[C@H](CC(=O)O)c1ccc(Cl)c(-c2cc(C(=O)O)ccc2Cl)c1` [Example 46, 3-{5-[(1R)-2-Amino-1-(carboxymethyl)ethyl]-2-chlorophenyl}-4-chlorobenzoic acid hydrochloride] was tested, and the IC50 (GABAB receptor [1]) was less than 25000 nM, the EC50 [2, 5] was less than 100 nM and the EC50 [3] was less than 700 nM. The “GABAB receptor agonist or partial agonist activity” value (GABAB receptor [4]) was “agonist or partial agonist activity”.
For `Cl.NC[C@H](CC(=O)O)c1ccc(Cl)c(-c2cc(F)cc(C(=O)O)c2)c1` [Example 50, 3-{5-[(1R)-2-Amino-1-(carboxymethyl)ethyl]-2-chlorophenyl}-5-fluorobenzoic acid hydrochloride], the IC50 (GABAB receptor [1]) was less than 25000 nM, the EC50 [2, 5] was less than 100 nM and the EC50 [3] was less than 700 nM. For the same compound, the “GABAB receptor agonist or partial agonist activity” value (GABAB receptor [4]) was “agonist or partial agonist activity”.
In the case of `Cl.NC[C@H](CC(=O)O)c1ccc(Cl)c(-c2cccc(C(N)=O)c2)c1` [Example 52, (3R)-4-Amino-3-[3-(3-carbamoylphenyl)-4-chlorophenyl]butanoic acid hydrochloride], the IC50 (GABAB receptor [1]) is reported as less than 25000 nM, the EC50 [2, 5] is reported as less than 100 nM and the EC50 [3] is reported as less than 700 nM. The “GABAB receptor agonist or partial agonist activity” value (GABAB receptor [4]) was “agonist or partial agonist activity”.
`NCC(C[PH](=O)O)c1ccc(Cl)c(OCc2ccncc2)c1` (centres unmarked) [Example 82, 2-{4-Chloro-3-(4-pyridylmethoxy)phenyl]-3-(hydrohydroxyphosphoryl)propylamine] gave an IC50 (GABAB receptor [1]) of less than 25000 nM, an EC50 [2] of less than 100 nM and an EC50 [3] of less than 700 nM.
For `COC(=O)C[C@@H](CN)c1ccc(Cl)c(OCc2ccncc2)c1` [methyl (3R)-4-amino-3-[4-chloro-3-(4-pyridylmethoxy)phenyl]butanoate hydrochloride], the IC50 (GABAB receptor [1]) was less than 25000 nM, the EC50 [2, 5] was less than 100 nM and the EC50 [3] was less than 700 nM.
